Measurements reported in publication PMC9400670, “Establishing the selective phospholipid membrane coordination, permeation and lysis properties for a series of ‘druggable’ supramolecular self-associating antimicrobial amphiphiles” (Chemical Science, 2022).
Read-outs that look alike come from different tables or passages of the source.

Key:
E. coli DH10B [1] = conditions: cited from earlier work; for MIC50 E. coli: E. coli DH10B, n = 3, 0.5 McFarland standard, number in bracket = efficacy rank
E. coli DH10B [2] = assay: MIC50 determination and initial screening from OD600 growth curves, E. coli DH10B; type: cell-based, Escherichia coli; conditions: for MIC50 / inhibition at 3300 µM: Escherichia coli, 15 h; for MIC50: E. coli DH10B; for inhibition at 3300 µM: DH10B, 3.3 mM, read-out: initial antimicrobial screening, inhibition of growth, E. coli
From the text: The antimicrobial activity of SSAs 1–14 was established against both a model Gram-positive, clinically relevant methicillin resistant Staphylococcus aureus (MRSA), and a model Gram-negative, E. coli bacteria, Table 1. Here MIC50 values are given in mM to enable the derivation of molecular structure: antimicrobial efficacy: physical property relationships. […]
Data were acquired in endpoint mode. […]
Section 3: Microbial Methods
These methods were taken directly from UK Health and Security Office (UKHSA) standard operating […]
Preparation of Luria Broth media (LB): Yeast extract (5 g), tryptone (10 g) and sodium chloride (10 g) were dissolved in dH₂O (1 L) then divided into bottles and autoclaved.
Preparation of Luria Broth (LB) agar plates: Agar (6 g) was added to LB (400 mL) and autoclaved. Once cool, the LB agar was poured into sterile petri dishes under sterile conditions and allowed to set. LB plates were stored at 4 °C until use.
Preparation of bacterial plates: Sterile LB agar plates were streaked using Escherichia coli DH10B or USA300 Methicillin-Resistant Staphylococcus aureus then incubated at 37 °C overnight.
Preparation of Inoculum: An initial culture was made up by inoculating LB media (5 mL) with a single colony of bacteria under sterile conditions and incubated at 37 °C with shaking overnight. The following day, overnight bacterial cultures were subcultured into fresh LB medium to a starting OD600 […]
Preparation of 96 well microplate for screening: 20 mM solutions of each compound to be tested were made up using 5 % ethanol. The 1:100 cell suspension (150 µL) was pipetted into the wells and SSA compound solutions (30 µL) were added into each well. The final screening concentration for each compound was 3.3 mM in the well. These were incubated for 20 hours in a plate reader, with optical density readings being taken at 600 nm every 15 minutes. Optical density readings were plotted against time to produce growth curves. […]
individual wells under sterile conditions. Compounds (30 µL) were added to the wells to equal a total volume of 180 µL in the wells. Six repeats of each concentration for each compound were created each plate. The plates were sealed using parafilm, then incubated at 37°C in a microplate reader for 18-25 hours. Optical density readings were taken at 600 nm every 15 min. Data was used to generate […]
Calculation of MIC50: Growth curves were plotted using OD600 optical density readings in Microsoft ® Excel ® 2013. OD600 optical density readings 900 minutes from the start of each of these growth cultures for each concentration of compound were plotted in Origin ® 2015. The resultant curve was normalized and fitted using the Boltzmann fit to define the MIC50 values for each compound.

[3] = system: E. coli polar lipid vesicles; assay: Synthetic phospholipid vesicle membrane binding assay (fluorescence polarisation), E. coli polar vesicles; conditions: lipid vesicles added to SSA (0.15 mM); n = 3; error = standard error; SSA alone set to 100 mP
Experimental: For intrinsically fluorescent SSAs 5, 6 and 8–12, FP titration experiments enabled the observation of SSA: phospholipid vesicle interactions. Here, an increase in FP value indicates an increase in the apparent size of the SSA as it interacts with the phospholipid vesicle. […]
Fluorescence polarisation: Lipid films were resuspended in Buffer (150 mM KCl, 10 mM HEPES, pH 7.4, 2 mM EGTA) and subjected to 9 freeze-thaw cycles in liquid nitrogen and extruded 20 times through a 200 nm polycarbonate membrane. Black bottom 96-well plates were prepared by serially diluting desired vesicle solution across the plate, the appropriate SSA solution (100 µL, 0.15 mM) was added to each well to give a total well volume of 200 µL. Fluorescent SSA solutions were set to a FP value of 100 mP. Data were acquired in endpoint mode. […]

[4] = Table S3, conversion of the mM values of Table 1, after 900 mins
[5] = n = 3, 0.5 McFarland standard, after 900 min, number in bracket = efficacy rank

Row | MIC50 (E. coli DH10B [2]; [4]) [µg/mL] | SMILES | MIC50 E. coli (E. coli DH10B [1]; after 900 min) | increase in FP, E. coli polar [3] [mP] | other results
1 | 3110 | Cc1ccc2nc(-c3ccc(NC(=O)NCS(=O)(=O)O)cc3)sc2c1 [SSA 6] | 5.02(8) mM | 35 ± 3 | –
2 | 2160 | O=C(NCS(=O)(=O)O)Nc1ccccc1-c1nc2ccccc2s1 [SSA 5] | 3.57(5) mM | 40 ± 4 | –
3 | 2210 | O=C(NCS(=O)(=O)O)Nc1ccc(-c2nc3ccccc3s2)cc1 [SSA 8] | – | 27 ± 2 | MIC50 (E. coli DH10B [2]; [5]): 3660 µM
4 | 1370 | Cc1ccc2nc(-c3ccc(NC(=O)NCCC(=O)O)cc3)sc2c1 [SSA 9] | – | 53 ± 3 | MIC50 (E. coli DH10B [2]; [5]): 2160 µM
5 | 750 | Cc1ccc2nc(-c3ccc(NC(=O)NCCCS(=O)(=O)O)cc3)sc2c1 [SSA 10] | – | 25 ± 14 | MIC50 (E. coli DH10B [2]; [5]): 1160 µM

Continued, molecule first:

Row | SMILES | MIC50 (E. coli DH10B [2]; [4]) [µg/mL] | MIC50 E. coli (E. coli DH10B [1]; after 900 min) | increase in FP, E. coli polar [3] [mP] | other results
6 | O=C(NCCCS(=O)(=O)O)Nc1ccc(C(F)(F)F)cc1 [SSA 2] | 840 | 1.48(3) mM | – | –
7 | O=C(O)CNC(=O)Nc1ccc(C(F)(F)F)cc1 [SSA 4] | 630 | 1.25(2) mM | – | –
8 | Cc1ccc2nc(-c3ccc(NC(=S)NCS(=O)(=O)O)cc3)sc2c1 [SSA 12] | – | – | 176 ± 2 | inhibition at 3300 µM (E. coli DH10B [2]; after 900 min): < 10%
9 | O=C(NCS(=O)(=O)O)Nc1ccc(C(F)(F)F)cc1 [SSA 1] | 2080 | 3.85(7) mM | – | –
10 | Cc1ccc2nc(NC(=O)NCS(=O)(=O)O)sc2c1 [SSA 7] | – | – | – | inhibition at 3300 µM (E. coli DH10B [2]; after 900 min): < 10%; initial antimicrobial screening outcome, E. coli (E. coli DH10B [2]; Table S3, screening at 3.3 mM): Fail
11 | Cc1ccc2nc(-c3ccc(NC(=O)NCC(=O)O)cc3)sc2c1 [SSA 11] | – | – | 79 ± 1 | –
12 | O=C(NCS(=O)(=O)O)Nc1ccc(C(F)(F)F)cc1 [SSA 3] | – | – | – | initial antimicrobial screening, inhibition of growth, E. coli (E. coli DH10B [1]; 3.3 mM, after 900 min): ^c (SSA did not pass initial antimicrobial screening, exhibited <10% inhibition of growth at 3.3 mM after 900 min and therefore excluded from further study); initial antimicrobial screening outcome, E. coli (E. coli DH10B [1]; Table S3, screening at 3.3 mM): Fail
